Measurements as given in ChEMBL document CHEMBL1141145, “A chiral benzoquinolizine-2-carboxylic acid arginine salt active against vancomycin-resistant Staphylococcus aureus” (J Med Chem, 2005).
Converted amounts (≈) assume the structure as drawn. Blank lines part the entries; values can stand above or below the compound they belong to. Numbered stars: 1 amine (or outer) side, 2 acyl side, 3 side chain; on linkers, the order of the positions; unused ones are H or OH. Bridge positions count the residues as written; N and C are the ends. Square brackets hold non-standard residues; d marks the D form. Peptide text beside a SMILES is read from it. * marks the point of attachment. X1 = O=C1C[C@@H](C(=O)[*:2])N([*:1])C[C@H]1CS[C@@H]1CN2CCC1CC2; NMePhe(4-NMe2) = CN[C@@H](Cc1ccc(N(C)C)cc1)C(=O)O; Picolinoyl(3-OH) = O=C(c1ncccc1O)*; Phg = N[C@H](C(=O)O)c1ccccc1; dAbu = CC[C@@H](N)C(=O)O

Key:
[1] = tested on: Mus musculus; assay: Efficacy against mice infected with MRSA-32 upon s.c. administration; format: functional; conditions: MRSA-32, sc
[2] = tested on: Mus musculus; assay: Efficacy against mice infected with MRSA-33 upon s.c. administration; format: functional; conditions: sc
[3] = tested on: Mus musculus; assay: Efficacy against mice infected with Staphylococcus aureus ATCC 25923 upon s.c. administration; format: functional; conditions: sc
[4] = tested on: Staphylococcus aureus; assay: Minimum inhibitory concentration against vancomycin intermediate Staphylococcus aureus MU 3; format: functional
[5] = tested on: Staphylococcus aureus; assay: Minimum inhibitory concentration against vancomycin intermediate Staphylococcus aureus MU 50; format: functional
[6] = tested on: Staphylococcus aureus; assay: Minimum inhibitory concentration against vancomycin-resistant Staphylococcus aureus (Hershey); format: functional
[7] = tested on: Staphylococcus aureus; assay: microbe, parasite or virus in culture
[8] = tested on: Staphylococcus aureus; assay: microbe, parasite or virus in culture; remark: listed apart in the source
[9] = tested on: Staphylococcus aureus; assay: microbe, parasite or virus in culture; remark: listed apart in the source
[10] = tested on: Streptococcus agalactiae; assay: Minimum inhibitory concentration against Streptococcus agalactiae ATCC 13813; format: functional
[11] = tested on: Staphylococcus saprophyticus; assay: Minimum inhibitory concentration against Staphylococcus saprophyticus ATCC 15305; format: functional
[12] = tested on: Enterococcus faecalis; assay: Minimum inhibitory concentration against Enterococcus faecalis ATCC 29212; format: functional
[13] = tested on: Klebsiella pneumoniae; assay: Minimum inhibitory concentration against Klebsiella pneumoniae ATCC 10031; format: functional
[14] = tested on: Phocaeicola vulgatus; assay: Minimum inhibitory concentration against Bacteroides vulgatus ATCC 29327; format: functional
[15] = tested on: Staphylococcus aureus; assay: Minimum inhibitory concentration against Staphylococcus aureus ATCC 25923; format: functional
[16] = tested on: Streptococcus sanguinis; assay: Minimum inhibitory concentration against Streptococcus sanguis ATCC 10556; format: functional
[17] = tested on: Staphylococcus aureus; assay: Minimum inhibitory concentration against Staphylococcus aureus grlA mutant; format: functional
[18] = tested on: Streptococcus pyogenes; assay: Minimum inhibitory concentration against Streptococcus pyogenes ATCC 19615; format: functional
[19] = tested on: Staphylococcus haemolyticus; assay: Minimum inhibitory concentration against Staphylococcus haemolyticus ATCC 29970; format: functional
[20] = biological target: T1, DNA gyrase (Staphylococcus aureus) (UniProt P0A0K8+P20831)
[21] = biological target: DNA topoisomerase 4 subunit A (Staphylococcus aureus) (UniProt P0C1U9)
[22] = tested on: Escherichia coli; assay: microbe, parasite or virus in culture; conditions: ATCC 25922
[23] = tested on: Pseudomonas aeruginosa; assay: microbe, parasite or virus in culture; conditions: ATCC 27853
[24] = tested on: Mus musculus; assay: Protection of mice infected with MRSA-32 cell suspension after oral administration of compound; format: functional; conditions: Mus musculus, MRSA-32, po; read-out: ED50
[25] = tested on: Staphylococcus aureus; assay: Minimum inhibitory concentration against methicillin susceptible Staphylococcus aureus after esterase action in rat serum; format: functional
[26] = tested on: Staphylococcus aureus; assay: Minimum inhibitory concentration against methicillin susceptible Staphylococcus aureus before esterase action in rat serum; format: functional
[27] = tested on: Mus musculus; assay: Protection of mice infected with MRSA-32 cell suspension after s.c. administration of compound; format: functional; conditions: MRSA-32, sc
[28] = tested on: Staphylococcus aureus; assay: Minimum inhibitory concentration against methicillin susceptible Staphylococcus aureus in the absence of esterase action; format: functional
[29] = tested on: Staphylococcus aureus; assay: Minimum inhibitory concentration against methicillin susceptible Staphylococcus aureus; format: functional; conditions: Staphylococcus aureus; read-out: MIC
[30] = tested on: Rattus norvegicus; assay: Amount of drug at which at 14 days of daily administration produced no venous blockage or phlebitis in rats; format: functional
[31] = biological target: T1, DNA gyrase (Staphylococcus aureus); remark: listed apart in the source
[32] = biological target: DNA topoisomerase 4 subunit A (Staphylococcus aureus) (UniProt P0C1U9); remark: listed apart in the source
[33] = tested on: Staphylococcus aureus; assay: Minimum inhibitory concentration against Vancomycin intermediate Staphylococcus aureus MU 50; format: functional

Compound: CC(=O)NC[C@H]1CN(c2ccc(N3CCOCC3)c(F)c2)C(=O)O1 [LINEZOLID]
- ED50 [1]: 1.14 mg/kg
- ED50 [2]: 3.1 mg/kg
- ED50 [3]: 2.4 mg/kg

Compound: CCN(CC)CCS(=O)(=O)[C@@H]1CCN2C(=O)c3coc(n3)CC(=O)C[C@H](O)/C=C(C)/C=C/CNC(=O)/C=C/[C@@H](C)[C@@H](C(C)C)OC(=O)[C@@H]12.CC[C@H]1NC(=O)[C@@H](NC(=O)c2ncccc2O)[C@@H](C)OC(=O)[C@H](c2ccccc2)NC(=O)[C@@H]2CC(=O)[C@H](CS[C@@H]3CN4CCC3CC4)CN2C(=O)[C@H](Cc2ccc(N(C)C)cc2)N(C)C(=O)[C@@H]2CCCN2C1=O [QUINUPRISTIN/DALFOPRISTIN] ({Picolinoyl(3-OH)}-T[dAbu]P[NMePhe(4-NMe2)][X1][Phg]; ester 1-C)
- MIC [4]: 1 µg/mL
- MIC [5]: 1 µg/mL
- MIC [6]: 1 µg/mL
- MIC [7]: 1 µg/mL
- MIC [8]: 0.5 µg/mL
- MIC [9]: 1 µg/mL

Compound: O=C(O)c1cn(C2CC2)c2cc(N3CCNCC3)c(F)cc2c1=O [CIPROFLOXACIN]
- MIC [10]: 2 µg/mL (≈ 6.04 µM)
- MIC [11]: 0.5 µg/mL (≈ 1.51 µM)
- MIC [12]: 2 µg/mL (≈ 6.04 µM)
- MIC [13]: < 0.008 µg/mL
- MIC [14]: 8 µg/mL (≈ 24.1 µM)
- MIC [15]: 1 µg/mL (≈ 3.02 µM)
- MIC [16]: 2 µg/mL (≈ 6.04 µM)
- MIC [17]: 1 µg/mL (≈ 3.02 µM)
- MIC [18]: 0.5 µg/mL (≈ 1.51 µM)
- MIC [19]: 0.25 µg/mL (≈ 0.754 µM)
- CC50 [20]: 50 µg/mL (≈ 151 µM)
- CC50 [21]: 2.5 µg/mL (≈ 7.54 µM)
- MIC [22]: < 0.008 µg/mL
- MIC [23]: 1 µg/mL (≈ 3.02 µM)

- MIC [25]: 1 µg/mL (≈ 2.19 µM)
- MIC [26]: 2 µg/mL (≈ 4.37 µM)
Compound: C[C@H]1CCc2c(N3CCC(O)CC3)c(F)cc3c(=O)c(C(=O)OC4CCN(C)CC4)cn1c23
- ED50 [24]: > 100 mg/kg

- MIC [25]: 0.06 µg/mL (≈ 0.131 µM)
- MIC [26]: 1 µg/mL (≈ 2.19 µM)
Compound: C[C@H]1CCc2c(N3CCC(O)CC3)c(F)cc3c(=O)c(C(=O)OCCN4CCCC4)cn1c23
- ED50 [24]: > 150 mg/kg

Compound: C[C@H]1CCc2c(N3CCC(O)CC3)c(F)cc3c(=O)c(C(=O)O)cn1c23 [LEVONADIFLOXACIN]
- ED50 [24]: 62.3 mg/kg
- ED50 [27]: 24.8 mg/kg
- MIC [28]: 0.03 µg/mL (≈ 0.0832 µM)

Compound: C[C@H]1CCc2c(N3CCC(O)CC3)c(F)cc3c(=O)c(C(=O)[O-])cn1c23.[Na+]
- MIC [29]: 0.03 µg/mL
- ED50 [24]: 60 mg/kg
- NOEL [30]: <250 mg/kg

Compound: C[C@H]1CCc2c(N3CCC(O)CC3)c(F)cc3c(=O)c(C(=O)O)cn1c23.NCCCC[C@H](N)C(=O)O
- MIC [29]: 0.03 µg/mL
- ED50 [24]: > 100 mg/kg

Compound: C[C@H]1CCc2c(N3CCC(O)CC3)c(F)cc3c(=O)c(C(=O)O)cn1c23
- CC50 [31]: 5 µg/mL (≈ 13.9 µM)
- CC50 [32]: 2.5 µg/mL (≈ 6.94 µM)

- MIC [25]: 0.25 µg/mL (≈ 0.53 µM)
- MIC [26]: 2 µg/mL (≈ 4.24 µM)
Compound: C[C@H]1CCc2c(N3CCC(O)CC3)c(F)cc3c(=O)c(C(=O)OCCN4CCCCC4)cn1c23
- ED50 [24]: > 150 mg/kg

Compound: C[C@H]1COc2c(N3CCN(C)CC3)c(F)cc3c(=O)c(C(=O)O)cn1c23.C[C@H]1COc2c(N3CCN(C)CC3)c(F)cc3c(=O)c(C(=O)O)cn1c23.O [LEVOFLOXACIN]
- MIC [4]: 16 µg/mL
- MIC [10]: 1 µg/mL
- MIC [11]: 0.5 µg/mL
- MIC [12]: 1 µg/mL
- MIC [13]: 0.008 µg/mL
- MIC [14]: 1 µg/mL
- MIC [15]: 1 µg/mL
- MIC [16]: 2 µg/mL
- MIC [18]: 1 µg/mL
- ED50 [1]: > 100 mg/kg
- ED50 [2]: > 100 mg/kg
- MIC [33]: 8 µg/mL
- MIC [6]: 32 µg/mL
- ED50 [3]: 5.92 mg/kg
- MIC [19]: 0.12 µg/mL
- MIC [7]: 16 µg/mL
- MIC [8]: 16 µg/mL
- MIC [9]: 8 µg/mL

- MIC [25]: 4 µg/mL (≈ 9.25 µM)
- MIC [26]: 8 µg/mL (≈ 18.5 µM)
Compound: COC(=O)COC(=O)c1cn2c3c(c(N4CCC(O)CC4)c(F)cc3c1=O)CC[C@@H]2C
- ED50 [24]: > 150 mg/kg

- MIC [25]: 0.1 µg/mL (≈ 0.211 µM)
- MIC [26]: 0.25 µg/mL (≈ 0.528 µM)
Compound: C[C@H]1CCc2c(N3CCC(O)CC3)c(F)cc3c(=O)c(C(=O)OCCN4CCOCC4)cn1c23
- ED50 [24]: > 100 mg/kg

Compound: CN[C@H](CC(C)C)C(=O)N[C@H]1C(=O)N[C@@H](CC(N)=O)C(=O)N[C@H]2C(=O)N[C@H]3C(=O)N[C@H](C(=O)N[C@H](C(=O)O)c4cc(O)cc(O)c4-c4cc3ccc4O)[C@H](O)c3ccc(c(Cl)c3)Oc3cc2cc(c3O[C@@H]2O[C@H](CO)[C@@H](O)[C@H](O)[C@H]2O[C@H]2C[C@](C)(N)[C@H](O)[C@H](C)O2)Oc2ccc(cc2Cl)[C@H]1O [VANCOMYCIN]
- MIC [4]: 8 µg/mL (≈ 5.52 µM)
- ED50 [1]: > 2.18 mg/kg
- ED50 [2]: > 3.7 mg/kg
- MIC [33]: 16 µg/mL (≈ 11 µM)
- MIC [6]: 32 µg/mL (≈ 22.1 µM)
- ED50 [3]: 6.11 mg/kg

Compound: C[C@H]1CCc2c(N3CCC(OC(=O)[C@H](CCC/N=C(\N)N[N+](=O)[O-])NC(=O)[C@@H](N)CCC/N=C(\N)N[N+](=O)[O-])CC3)c(F)cc3c(=O)c(C(=O)O)cn1c23.O=C(O)C(F)(F)F
- ED50 [24]: > 75 mg/kg
- MIC [25]: 0.12 µg/mL
- MIC [26]: 0.5 µg/mL
